Results taken from PubChem BioAssay (NCI).
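These data come from cells grown in 96-well plates and exposed to compound for 48 hours at five concentrations. At the GI50, growth is halved. TGI marks complete inhibition of growth.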

Experiments:
Experiment in all cases: growth of human tumour cells (NCI), 48 h
COLO 205 colon = tested on: COLO 205 colon
SK-OV-3 ovarian = tested on: SK-OV-3 ovarian
OVCAR-8 ovarian = tested on: OVCAR-8 ovarian
786-0 renal = tested on: 786-0 renal
SNB-75 CNS = tested on: SNB-75 CNS
HL-60(TB) leukemia = tested on: HL-60(TB) leukemia
HCT-15 colon = tested on: HCT-15 colon
T-47D breast = tested on: T-47D breast
OVCAR-3 ovarian = tested on: OVCAR-3 ovarian
SF-539 CNS = tested on: SF-539 CNS
OVCAR-4 ovarian = tested on: OVCAR-4 ovarian
SK-MEL-2 melanoma = tested on: SK-MEL-2 melanoma
A549 NSCLC = tested on: A549 NSCLC
SR leukemia = tested on: SR leukemia
SN12C renal = tested on: SN12C renal
KM12 colon = tested on: KM12 colon
SF-268 CNS = tested on: SF-268 CNS
SW-620 colon = tested on: SW-620 colon
RPMI-8226 leukemia = tested on: RPMI-8226 leukemia
A498 renal = tested on: A498 renal
PC-3 prostate = tested on: PC-3 prostate
TK-10 renal = tested on: TK-10 renal
HCC-2998 colon = tested on: HCC-2998 colon
MDA-MB-435 = tested on: MDA-MB-435
CAKI-1 renal = tested on: CAKI-1 renal
HCT-116 colon = tested on: HCT-116 colon
HT29 colon = tested on: HT29 colon
HS 578T breast = tested on: HS 578T breast
IGROV1 ovarian = tested on: IGROV1 ovarian
UACC-62 melanoma = tested on: UACC-62 melanoma
SF-295 CNS = tested on: SF-295 CNS
U251 CNS = tested on: U251 CNS
HOP-62 NSCLC = tested on: HOP-62 NSCLC
NCI-H522 lung = tested on: NCI-H522 lung
NCI-H23 lung = tested on: NCI-H23 lung
SNB-19 CNS = tested on: SNB-19 CNS
HOP-92 NSCLC = tested on: HOP-92 NSCLC
SK-MEL-28 melanoma = tested on: SK-MEL-28 melanoma
K-562 leukemia = tested on: K-562 leukemia
NCI-H226 lung = tested on: NCI-H226 lung
MDA-MB-231 breast = tested on: MDA-MB-231 breast
NCI/ADR-RES ovarian = tested on: NCI/ADR-RES ovarian
UACC-257 melanoma = tested on: UACC-257 melanoma
MCF7 breast = tested on: MCF7 breast
UO-31 renal = tested on: UO-31 renal
ACHN renal = tested on: ACHN renal
OVCAR-5 ovarian = tested on: OVCAR-5 ovarian
CCRF-CEM leukemia = tested on: CCRF-CEM leukemia
MOLT-4 leukemia = tested on: MOLT-4 leukemia
RXF 393 renal = tested on: RXF 393 renal
SK-MEL-5 melanoma = tested on: SK-MEL-5 melanoma
LOX IMVI melanoma = tested on: LOX IMVI melanoma
EKVX NSCLC = tested on: EKVX NSCLC
DU-145 prostate = tested on: DU-145 prostate
NCI-H460 lung = tested on: NCI-H460 lung
BT-549 breast = tested on: BT-549 breast
MALME-3M melanoma = tested on: MALME-3M melanoma

CC1=C2C(=C[C@@](C)(COC(=O)c3ccc(S(=O)(=O)F)cc3)[C@@H]2O)C(=O)[C@](C)(O)C12CC2
GI50 (COLO 205 colon): 951 nM | TGI (COLO 205 colon): 2720 nM | GI50 (SK-OV-3 ovarian): 2520 nM | TGI (SK-OV-3 ovarian): 7890 nM | GI50 (OVCAR-8 ovarian): 903 nM | TGI (OVCAR-8 ovarian): 3620 nM | GI50 (786-0 renal): 2150 nM | TGI (786-0 renal): 7930 nM | GI50 (SNB-75 CNS): 1490 nM | TGI (SNB-75 CNS): 3070 nM | GI50 (HL-60(TB) leukemia): 566 nM | TGI (HL-60(TB) leukemia): 5910 nM | GI50 (HCT-15 colon): 424 nM | TGI (HCT-15 colon): 2240 nM | GI50 (T-47D breast): 2060 nM | TGI (T-47D breast): 18800 nM | GI50 (OVCAR-3 ovarian): 906 nM | TGI (OVCAR-3 ovarian): 3800 nM | GI50 (SF-539 CNS): 1860 nM | TGI (SF-539 CNS): 3710 nM | GI50 (OVCAR-4 ovarian): 1690 nM | TGI (OVCAR-4 ovarian): 4390 nM | GI50 (SK-MEL-2 melanoma): 613 nM | TGI (SK-MEL-2 melanoma): 1290 nM | GI50 (A549 NSCLC): 2870 nM | TGI (A549 NSCLC): > 26100 nM | GI50 (SR leukemia): 1360 nM | TGI (SR leukemia): > 22600 nM | GI50 (SN12C renal): 1200 nM | TGI (SN12C renal): 5460 nM | GI50 (KM12 colon): 4280 nM | TGI (KM12 colon): 24900 nM | GI50 (SF-268 CNS): 1060 nM | TGI (SF-268 CNS): 6130 nM | GI50 (SW-620 colon): 1970 nM | TGI (SW-620 colon): 8790 nM | GI50 (RPMI-8226 leukemia): 24500 nM | TGI (RPMI-8226 leukemia): > 74200 nM | GI50 (A498 renal): 2270 nM | TGI (A498 renal): 5620 nM | GI50 (PC-3 prostate): 1710 nM | TGI (PC-3 prostate): > 29100 nM | GI50 (TK-10 renal): 2510 nM | TGI (TK-10 renal): 6470 nM | GI50 (HCC-2998 colon): 945 nM | TGI (HCC-2998 colon): 2710 nM | GI50 (MDA-MB-435): 1170 nM | TGI (MDA-MB-435): 2980 nM | GI50 (CAKI-1 renal): 631 nM | TGI (CAKI-1 renal): 2450 nM | GI50 (HCT-116 colon): 587 nM | TGI (HCT-116 colon): 2500 nM | GI50 (HT29 colon): 498 nM | TGI (HT29 colon): 2670 nM | GI50 (HS 578T breast): 2420 nM | TGI (HS 578T breast): 9570 nM | GI50 (IGROV1 ovarian): 941 nM | TGI (IGROV1 ovarian): 5060 nM | GI50 (UACC-62 melanoma): 894 nM | TGI (UACC-62 melanoma): 2560 nM | GI50 (SF-295 CNS): 2140 nM | TGI (SF-295 CNS): 8200 nM | GI50 (U251 CNS): 1400 nM | TGI (U251 CNS): > 25100 nM | GI50 (HOP-62 NSCLC): 2550 nM | TGI (HOP-62 NSCLC): 13800 nM | GI50 (NCI-H522 lung): 745 nM | TGI (NCI-H522 lung): 2530 nM | GI50 (NCI-H23 lung): 1000 nM | TGI (NCI-H23 lung): 3620 nM | GI50 (SNB-19 CNS): 1820 nM | TGI (SNB-19 CNS): 10400 nM | GI50 (HOP-92 NSCLC): 2170 nM | TGI (HOP-92 NSCLC): 6010 nM | GI50 (SK-MEL-28 melanoma): 556 nM | TGI (SK-MEL-28 melanoma): 2050 nM | GI50 (K-562 leukemia): 3410 nM | TGI (K-562 leukemia): > 100000 nM | GI50 (NCI-H226 lung): 2300 nM | TGI (NCI-H226 lung): 9140 nM | GI50 (MDA-MB-231 breast): 1350 nM | TGI (MDA-MB-231 breast): 6620 nM | GI50 (NCI/ADR-RES ovarian): 815 nM | TGI (NCI/ADR-RES ovarian): 3970 nM | GI50 (UACC-257 melanoma): 2050 nM | TGI (UACC-257 melanoma): 4780 nM | GI50 (MCF7 breast): 596 nM | TGI (MCF7 breast): 9310 nM | GI50 (UO-31 renal): 1610 nM | TGI (UO-31 renal): 3090 nM | GI50 (ACHN renal): 541 nM | TGI (ACHN renal): 1730 nM | GI50 (OVCAR-5 ovarian): 982 nM | TGI (OVCAR-5 ovarian): 5120 nM | GI50 (CCRF-CEM leukemia): 3210 nM | TGI (CCRF-CEM leukemia): > 28000 nM | GI50 (MOLT-4 leukemia): 2020 nM | TGI (MOLT-4 leukemia): > 25800 nM | GI50 (RXF 393 renal): 522 nM | TGI (RXF 393 renal): 1230 nM | GI50 (SK-MEL-5 melanoma): 1490 nM | TGI (SK-MEL-5 melanoma): 3510 nM | GI50 (LOX IMVI melanoma): 588 nM | TGI (LOX IMVI melanoma): 2220 nM | GI50 (EKVX NSCLC): 2420 nM | TGI (EKVX NSCLC): 6470 nM | GI50 (DU-145 prostate): 522 nM | TGI (DU-145 prostate): 3040 nM | GI50 (NCI-H460 lung): 614 nM | TGI (NCI-H460 lung): 1870 nM | GI50 (BT-549 breast): 1220 nM | TGI (BT-549 breast): 2840 nM | GI50 (MALME-3M melanoma): 785 nM | TGI (MALME-3M melanoma): 2330 nM
